# Source: paper PMC4918903 (Journal of natural products, 2008)
# Entries after “also recorded” stand apart in the source; their conditions may differ.
# Legend:
# [1] = tested on: Vero cell line (monkey kidney fibroblast cells); assay: Cytotoxicity to mammalian Vero cells; type: cell-based; conditions: highest tested concentration 4700 ng/mL
# [2] = Stability in solvents; type: physicochemical
# [3] = tested on: P. berghei (sensitive strain); assay: In vivo antimalarial activity in rodent malaria model; conditions: oral; for cure: mice without parasitemia up to day 28 post-infection; for toxicity in vivo (in words): 30 mg/kg/day x 3 doses
# [4] = tested on: Candida albicans; assay: In vitro antifungal activity; type: cell-based
# [5] = tested on: Mycobacterium intracellulare; assay: In vitro antibacterial activity; type: cell-based
# [6] = tested on: P. falciparum (D6 clone); assay: In vitro antimalarial activity, chloroquine-sensitive D6 clone; type: cell-based; conditions: Plasmodium falciparum, D6, read-out: P. falciparum (D6 clone) IC50
# [7] = tested on: Leishmania donovani promastigotes; assay: Antileishmanial activity, Almar Blue assay; type: cell-based; conditions: for IC50: read-out: L. donovani IC50
# [8] = tested on: Cryptococcus neoformans; assay: In vitro antifungal activity; type: cell-based; conditions: for IC50: Cryptococcus neoformans, read-out: C. neoformans IC50
# [9] = tested on: P. bergei-infected mice; conditions: single intraperitoneal and oral administration; cited from earlier work
# [10] = tested on: P. falciparum (W2 clone); assay: In vitro antimalarial activity, chloroquine-resistant W2 clone; type: cell-based; conditions: Plasmodium falciparum, W2, read-out: P. falciparum (W2 clone) IC50
# [11] = tested on: methicillin-resistant S. aureus (MRSA); assay: In vitro antibacterial activity; type: cell-based
# [12] = tested on: HSV-II; conditions: cited from earlier work
# [13] = tested on: KB carcinoma cell line; conditions: replacement of hydroxyl with methoxy at 8-position; cited from earlier work
# [14] = tested on: LoVo; conditions: versus 8-hydroxy parent; cited from earlier work
smiles,measurement,setting,value
"CC(=O)Oc1cccc2c1[nH]c1c(C3=C[C@@]4(O)CC/C=C\CCCCN5CC[C@@H]3[C@]3(C[C@@H]6/C=C\CCCCN6[C@H]34)C5)nccc12 [Compound 3, 8-acetoxymanzamine A]",toxicity to Vero cell line (in words),[1],exhibited toxicity
same,hydrolysis in DMSO and IPA (in words),[2]; DMSO and IPA,negligible
same,formation of hydroxyl moiety 2 in MeCN and DMSO (in words),[2]; MeCN and DMSO,no detectable trace
same,hydrolysis to 2 in MeOH,"[2]; MeOH, 15 h, LC-MS",98%
same,cure,[3]; 10 mg/kg x 3 days,0/4
same,cure,[3]; 30 mg/kg x 3 days,0/3
same,toxicity in vivo (in words),[3],higher toxicity; also recorded: toxic
"O[C@]12C=C(c3nccc4c3[nH]c3ccccc34)[C@@H]3CCN(CCCC/C=C\CC1)C[C@@]31C[C@@H]3/C=C\CCCCN3[C@H]12 [Compound 1, manzamine A]",IC50,"[4]; Candida albicans, read-out: C. albicans IC50",2 µg/mL
same,IC50,"[5]; Mycobacterium intracellulare, read-out: M. intracellulare IC50",0.35 µg/mL
same,IC50,[6],0.0042 µg/mL
same,IC50,[7],0.9 µg/mL
same,IC50,[8],3 µg/mL
same,cure,[3]; 10 mg/kg x 3 days,1/4
same,toxicity in vivo (in words),[3],shows toxicity
same,prolonged survival of infected mice,[9],more than 10 days
"Oc1cccc2c1[nH]c1c(C3=C[C@@]4(O)CC/C=C\CCCCN5CC[C@@H]3[C@]3(C[C@@H]6/C=C\CCCCN6[C@H]34)C5)nccc12 [Compound 2, 8-hydroxymanzamine A]",MIC,"[4]; Candida albicans, read-out: C. albicans MIC",20 µg/mL
same,IC50,[10],0.008 µg/mL
same,IC50,[6],0.006 µg/mL
same,IC50,[7],6.2 µg/mL
same,IC50,[8],3 µg/mL
same,cure,[3]; 10 mg/kg x 3 days,0/4
same,cure,[3]; 30 mg/kg x 3 days,0/4
same,prolonged survival of infected mice,[9],more than 10 days
"CCN(CC)CCCC(C)Nc1ccnc2cc(Cl)ccc12 (stereo not drawn) [chloroquine, reference compound]",IC50,[10],0.155 µg/mL
same,IC50,[6],0.014 µg/mL
same,% suppression in parasitemia (% activity) day 7,"[3]; 50 mg/kg x 3 days, vehicle 0.1 N HCl, day 7 post-infection",100%
same,% suppression in parasitemia (% activity) day 10,"[3]; 50 mg/kg x 3 days, vehicle 0.1 N HCl, day 10 post-infection",100%
same,% suppression in parasitemia (% activity) day 14,"[3]; 50 mg/kg x 3 days, vehicle 0.1 N HCl, day 14 post-infection",100%
same,cure,[3]; 50 mg/kg x 3 days,3/4
"N=C(N)c1ccc(OCCCCCOc2ccc(C(=N)N)cc2)cc1 [pentamidine, reference compound]",IC50,[7],2.6 µg/mL
same,IC90,[7]; read-out: L. donovani IC90,6.9 µg/mL
"CC(=O)Oc1cccc2c1[nH]c1c(C3=C[C@@]4(OC(C)=O)CC/C=C\CCCCN5CC[C@@H]3[C@]3(C[C@@H]6/C=C\CCCCN6[C@H]34)C5)nccc12 [Compound 4, 8,12-diacetoxymanzamine A]",activity against C. albicans (in words),[4],inactive
same,activity against M. intracellulare (in words),[5],moderate activity
same,toxicity to Vero cell line (in words),[1],did not show cytotoxicity
same,activity against C. neoformans (in words),[8],inactive
same,stability in CDCl3 and CD2Cl2 (in words),"[2]; CDCl3 and CD2Cl2, 24 h, 1H NMR",decomposition
same,stability in benzene (in words),"[2]; benzene, a few days of 1H NMR acquisition",no changes were observed
same,stability in several tested solvents (in words),[2]; several tested solvents with the exception of benzene,unstable and easily degraded
same,activity against MRSA (in words),[11],moderate activity
"COc1cccc2c1[nH]c1c(C3=C[C@@]4(O)CC/C=C\CCCCN5CC[C@@H]3[C@]3(C[C@@H]6/C=C\CCCCN6[C@H]34)C5)nccc12 [Compound 5, 8-methoxymanzamine A]",activity against HSV-II (in words),[12],no activity
same,toxicity to Vero cell line (in words),[1],exhibited toxicity
same,toxicity in KB carcinoma cell line versus 8-hydroxy parent (in words),[13],reduced the toxicity
same,cytotoxicity against LoVo (in words),[14],cytotoxity increased
same,stability in different solvents (in words),"[2]; different solvents, two months, LC-MS",no expected hydrolysis to compound 2 was observed
"Oc1cccc2c1[nH]c1c(C3=C[C@@]4(O)CC/C=C\CCCCN5CC[C@@H]3[C@]3(CC6/C=C\CCCCN6[C@H]34)C5)nccc12 (stereo partly drawn) [Compound 2, 8-hydroxymanzamine A]",toxicity in vivo (in words),[3],not toxic
